Values of other authors, collected in patent publication US20120122825A1, “USE OF PICOPLATIN TO TREAT PROSTATE CANCER” (Poniard Pharmaceuticals, Inc., priority 2009, published 2012).

Experiments:
[1] = test system: patients with solid tumors; settings: picoplatin and docetaxel combination, 33 patients with solid tumors
[2] = 30 mg/m^2 docetaxel weekly for 5 of 6 weeks plus 5 mg prednisone twice daily

**Q.** For `CC(=O)O[C@@]12CO[C@@H]1C[C@H](O)[C@@]1(C)C(=O)[C@H](O)C3=C(C)[C@@H](OC(=O)[C@H](O)[C@@H](NC(=O)OC(C)(C)C)c4ccccc4)C[C@@](O)([C@@H](OC(=O)c4ccccc4)[C@H]21)C3(C)C` [docetaxel], which “dose limiting toxicity (DLT) dose” value [1] is on record?
**A.** 75 mg/m^2

**Q.** And the “recommended Phase II dose (PTD)” value [1]?
**A.** 75 mg/m^2

**Q.** What about the “>50% reductions in PSA, share of men” value (men with HRPC; [2]) of the same compound?
**A.** 48%

**Q.** What about the Overall survival (men with HRPC; [2]) of the same compound?
**A.** 17.4 months

**Q.** And the PSA response expected (men with HRPC; docetaxel alone, comparison value)?
**A.** 45%
